Test results taken from the supplement of paper PMC10307832.

What was measured:
Assay in all cases: relative viability (nuclei count vs DMSO), 5 days (fraction); higher = more cells survive
[1] = test system: A549
Outline: (§1)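 Values are medians from duplicate plates. Each reflects relative viability, defined as the nuclei count of treated wells over that of vehicle wells. Lung cancer cell lines in 1536-well plates were pin-tool dosed one day after seeding with one drug alone or with a fixed anchor-drug dose plus five library-drug doses (not always all listed) in √10 steps, then fixed, stained and imaged at 4× after 5 days.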

[2] = test system: COR-L 105
Outline: as §1

[3] = test system: LCLC-103H
Outline: as §1

[4] = test system: LK-2
Outline: as §1

[5] = test system: NCI-H1355
Outline: as §1

[6] = test system: NCI-H1623
Outline: as §1

[7] = test system: NCI-H1666
Outline: as §1

[8] = test system: NCI-H520
Outline: as §1

[9] = test system: NCI-H522
Outline: as §1

SMILES: CC(=O)O[C@@]12CO[C@@H]1C[C@H](O)[C@@]1(C)C(=O)[C@H](O)C3=C(C)[C@@H](OC(=O)[C@H](O)[C@@H](NC(=O)OC(C)(C)C)c4ccccc4)C[C@@](O)([C@@H](OC(=O)c4ccccc4)[C@H]21)C3(C)C [Docetaxel] + N=C(N)NC(=N)NCCc1ccccc1 [Phenformin] (partner 250 µM)
- relative viability ([1]; first compound 0.0002 µM): 0.203
- relative viability ([1]; first compound 0.000632 µM): 0.0682
- relative viability ([1]; first compound 0.002 µM): 0.0555
- relative viability ([1]; first compound 0.006325 µM): 0.0466
- relative viability ([1]; first compound 0.02 µM): 0.0476
- relative viability ([2]; first compound 0.0002 µM): 0.431
- relative viability ([2]; first compound 0.000632 µM): 0.392
- relative viability ([2]; first compound 0.002 µM): 0.279
- relative viability ([2]; first compound 0.006325 µM): 0.267
- relative viability ([2]; first compound 0.02 µM): 0.247
- relative viability ([3]; first compound 0.0002 µM): 0.347
- relative viability ([3]; first compound 0.000632 µM): 0.344
- relative viability ([3]; first compound 0.002 µM): 0.308
- relative viability ([3]; first compound 0.006325 µM): 0.282
- relative viability ([3]; first compound 0.02 µM): 0.248
- relative viability ([4]; first compound 0.0002 µM): 0.369
- relative viability ([4]; first compound 0.000632 µM): 0.27
- relative viability ([4]; first compound 0.002 µM): 0.118
- relative viability ([4]; first compound 0.006325 µM): 0.153
- relative viability ([4]; first compound 0.02 µM): 0.124
- relative viability ([5]; first compound 0.0002 µM): 0.463
- relative viability ([5]; first compound 0.000632 µM): 0.402
- relative viability ([5]; first compound 0.002 µM): 0.385
- relative viability ([5]; first compound 0.006325 µM): 0.287
- relative viability ([5]; first compound 0.02 µM): 0.217
- relative viability ([6]; first compound 0.0002 µM): 0.54
- relative viability ([6]; first compound 0.000632 µM): 0.568
- relative viability ([6]; first compound 0.002 µM): 0.494
- relative viability ([6]; first compound 0.006325 µM): 0.313
- relative viability ([6]; first compound 0.02 µM): 0.239
- relative viability ([7]; first compound 0.0002 µM): 0.47
- relative viability ([7]; first compound 0.000632 µM): 0.515
- relative viability ([7]; first compound 0.002 µM): 0.537
- relative viability ([7]; first compound 0.006325 µM): 0.382
- relative viability ([7]; first compound 0.02 µM): 0.337
- relative viability ([8]; first compound 0.0002 µM): 0.585
- relative viability ([8]; first compound 0.000632 µM): 0.604
- relative viability ([8]; first compound 0.002 µM): 0.37
- relative viability ([8]; first compound 0.006325 µM): 0.255
- relative viability ([8]; first compound 0.02 µM): 0.148
- relative viability ([9]; first compound 0.0002 µM): 0.611
- relative viability ([9]; first compound 0.000632 µM): 0.433
- relative viability ([9]; first compound 0.002 µM): 0.527
- relative viability ([9]; first compound 0.006325 µM): 0.55
- relative viability ([9]; first compound 0.02 µM): 0.471
